Measurements taken from patent US11952593B2, “Detection and treatment of daughter number variations in cancer cells” (PharmacoGenetics Limited, priority 2020, dated 2024).

Columns and labels:
HepG2 cells = assay: Daughter-cell subgroups P1 through P8 in mitoses with DNV, HepG2; format: cell-based, human; details: HepG2, 24 hours, wogonin 50 μM, 5-FU 20 μM
Excerpt: (§1) “Daughter Number Variation” is a process that occurs during mitosis, where more than two daughter cells are produced per mitotic division. It is a two-stage process, wherein cell divisions of mono-nucleate, bi-nucleate, tri-nucleate and tetra-nucleate mother cells at Stage 1 produce subgroups of single mono-nucleate cells (herein referred to as P1), and subgroups containing one bi-nucleate cell and two mono-nucleate cells (herein referred to as P2). Stage 1 is followed by Stage 2, during which time some of the daughter cells from Stage 1 fuse to produce multi-nucleate cell subgroups, where the different subgroups differ with respect to the number of constituent cells and their nucleate status (herein referred to as P3 through P8). All the subgroups from a single DNV mitosis stay close to one another to form a distinct cluster when the cell culture is not overly dense with cells.
(§2) P1 subgroup cells are daughter mono-nucleate cells resulting from mitoses with DNV that have not undergone any post-mitotic cell fusion. P2 subgroup daughter cells are clusters of one bi-nucleate cell and two mono-nucleate cells, which also have not undergone any post-mitotic cell fusion during DNV, whereas each of the multi-nucleated subgroups contains at least one cell that is generated from post-mitotic fusions between the Stage 1 cells. P3 through P8 are daughter cell subgroups, which result from cell fusions during DNV, and wherein each subgroup includes at least one multinucleate cell.
(§3) By way of example and not of limitation, there is at least one multinucleate cell with two nuclei in P3 and P5, one multinucleate cell with three nuclei in P4 and P6, one multinucleate cell with four nuclei in P7, and one multinucleate cell with five nuclei in P8, sharing the same cytoplasm. More specifically, P3 cell subgroups are clusters of one multinucleate cell with two nuclei and one mononucleate cell, P4 cell subgroups are one multinucleate cell with three nuclei, P5 cell subgroups are clusters of either two multinucleate cells with two nuclei or one multinucleate cell with two nuclei and one binucleate cell, P6 cell subgroups are clusters of one multinucleate cell with three nuclei and one mononucleate cell, P7 cell subgroups are one multinucleate cell with four nuclei, and P8 cell subgroups are one multinucleate cell with five nuclei. P1 through P8 cell subgroups are depicted in detail in FIG. 2.
(§4) The counts of P1 and P2 subgroups of cancer cells are then used to obtain their proportions based on the total number of cell subgroups P1 through P8 that resulted from mitotic DNVs during the predetermined period of time. The proportions are typically expressed as percentages. The proportion of P1 subgroup of cells is calculated as (number of P1 subgroups)+(total number of daughter cell subgroups)×100%, and the proportion of (P1 and P2) subgroup is calculated as (number of P1 subgroups+number of P2 subgroups)+(total number of daughter cell subgroups)×100%. This can also be expressed as (number of P1 subgroups)+(total number of P1 through P8 subgroups)×100%, or (number of P1 subgroups+number of P2 subgroups)+(total number of P1 through P8 subgroups)×100%, respectively.
(§5) To investigate DNVs, the human HepG2 hepatocellular carcinoma, HeLa cervical adenocarcinoma, and A549 lung adenocarcinoma cell lines, as well as the non-cancerous RPE1 line of hTRET-immortalized retina epithelial cells, were obtained from the American Type Culture Collection (ATCC, Manassas, Va., USA) and cultivated in Dulbecco's Modified Eagle Medium (DMEM) supplemented with 10% fetal bovine serum (Gemini Bio-Products, Sacramento. Calif.) under a humidified atmosphere of 5% C02 at 37° C. […]

A549 cells = assay: Daughter-cell subgroups P1 through P8 in mitoses with DNV, A549; format: cell-based, human; details: A549, 24 hours, wogonin 50 μM, 5-FU 20 μM
Excerpt: as §1, §2, §3, §4, §5

| SMILES | Mitoses with DNV, number (HepG2 cells) | P1 + P2 subgroups, number (HepG2 cells) | P1 subgroups, number (HepG2 cells) | P2 subgroups, % of all P1 through P8 subgroups (HepG2 cells) | P2 subgroups, number (HepG2 cells) | P3 subgroups, % of all P1 through P8 subgroups (HepG2 cells) | P3 subgroups, number (HepG2 cells) | P4 subgroups, number (HepG2 cells) | P5 subgroups, % of all P1 through P8 subgroups (HepG2 cells) | P5 subgroups, number (HepG2 cells) | P6 subgroups, % of all P1 through P8 subgroups (HepG2 cells) | P6 subgroups, number (HepG2 cells) | P7 subgroups, number (HepG2 cells) | P8 subgroups, number (HepG2 cells) | Mitoses with DNV, number (A549 cells) | P1 + P2 subgroups, number (A549 cells) | P1 subgroups, number (A549 cells) | P2 subgroups, number (A549 cells) | P3 subgroups, number (A549 cells) | P4 subgroups, number (A549 cells) | further results |
| --- | --- | --- | --- | --- | --- | --- | --- | --- | --- | --- | --- | --- | --- | --- | --- | --- | --- | --- | --- | --- | --- |
| O=c1[nH]cc(F)c(=O)[nH]1 [5-FU, 5-flurouracil] | 17 | 6 | 3 | (17.6) % | 3 | (35.2) % | 6 | 0 | (11.7) % | 2 | (17.6) % | 3 | 0 | 0 | 3 | 3 | 3 | 0 | 0 | 0 | P5 subgroups, number (A549 cells): 0; P6 subgroups, number (A549 cells): 0; P7 subgroups, number (A549 cells): 0; P8 subgroups, number (A549 cells): 0 |
| COc1c(O)cc(O)c2c(=O)cc(-c3ccccc3)oc12 [Wogonin, wogonin] | 63 | 38 | 27 | (17.4) % | 11 | (12.7) % | 8 | 9 | (4.7) % | 3 | (4.7) % | 3 | 2 | 0 | 7 | 4 | 4 | 0 | 3 | 0 | P1 + P2 subgroups, % of all P1 through P8 subgroups (HepG2 cells): (60.3) %; P1 subgroups, % of all P1 through P8 subgroups (HepG2 cells): (42.8) %; P4 subgroups, % of all P1 through P8 subgroups (HepG2 cells): (14.2) %; P7 subgroups, % of all P1 through P8 subgroups (HepG2 cells): (3.1) %; P1 + P2 subgroups, % of all P1 through P8 subgroups (HepG2 cells; listed as wogonin): 60.3%; P1 subgroups, % of all P1 through P8 subgroups (HepG2 cells; listed as wogonin): 42.8%; P1 + P2 subgroups, % of all P1 through P8 subgroups (A549 cells): (57.1) %; P1 subgroups, % of all P1 through P8 subgroups (A549 cells): (57.1) %; P3 subgroups, % of all P1 through P8 subgroups (A549 cells): (42.8) %; P5 subgroups, number (A549 cells): 0; P6 subgroups, number (A549 cells): 0; P7 subgroups, number (A549 cells): 0; P8 subgroups, number (A549 cells): 0; P1 + P2 subgroups, % of all P1 through P8 subgroups (A549 cells; listed as wogonin): 57.1%; P1 subgroups, % of all P1 through P8 subgroups (A549 cells; listed as wogonin): 57.1% |
